# Measured values as given in US20250299826A1, “OPTIMAL TUMOR MICROENVIRONMENT NORMALIZATION THERAPY” (University of Connecticut, priority 2022, published 2025).
# Tested on: orthotopic 4T1 breast cancer
# Assay: Tumor transport model simulation: IFP/IFV, solute concentration and transvascular convective/diffusive flux profiles
# Settings: DEX treatment
compound,measurement,value
"C[C@@H]1C[C@H]2[C@@H]3CCC4=CC(=O)C=C[C@]4(C)[C@@]3(F)[C@@H](O)C[C@]2(C)[C@@]1(O)C(=O)CO [DEX, dexamethasone]",increase in volume fraction of tumor dominated by convective transport vs control,61%
